From US9593103B2, “Pyridyl hydrazones for the treatment of tuberculosis and related diseases” (TECNIMEDE SOCIEDADE TECNICO-MEDICINAL S.A., priority 2012, dated 2017)

Test system: Mycobacterium smegmatis
Assay: In vitro Mycobacterium smegmatis growth inhibition assay (suspension turbidity, 96 hours)
Format: cell-based
Details: for % of Celular Growth at 96 hours: Mycobacterium smegmatis; for inhibitory activity against Mycobacterium smegmatis growth (in words, compared with RMP): compared with the active control RMP; for IC50: concentration to inhibit 50% of Mycobacterium smegmatis growth, four parameter curve fit

2-hydroxy-5-methylbenzaldehyde-(2-pyridinyl)hydrazine [Compound 61]
% of Celular Growth at 96 hours (concentration 1.23 μM): 75.35% | % of Celular Growth at 96 hours (concentration 3.70 μM): 69.76% | % of Celular Growth at 96 hours (concentration 11.11 μM): 83.84% | % of Celular Growth at 96 hours (concentration 33.33 μM): 20.08% | % of Celular Growth at 96 hours (concentration 100.00 μM): 24.45% | inhibitory activity against Mycobacterium smegmatis growth (in words, compared with RMP): better IC50 values than RMP | inhibitory activity against Mycobacterium smegmatis growth (in words, compared with RMP) (listed as N-pyridin-2-yl-N′-5-methyl-2-hydroxyphenylmethylene-hydrazine): desired pharmacological activity | IC50: 13.5 µM

3,5-dibromo-2-hydroxybenzaldehyde (2-pyridinyl)hydrazine [Compound 42]
% of Celular Growth at 96 hours (concentration 1.23 μM): 110.06% | % of Celular Growth at 96 hours (concentration 3.70 μM): 104.48% | % of Celular Growth at 96 hours (concentration 11.11 μM): 98.17% | % of Celular Growth at 96 hours (concentration 33.33 μM): 41.52% | % of Celular Growth at 96 hours (concentration 100.00 μM): 31.91% | inhibitory activity against Mycobacterium smegmatis growth (in words, compared with RMP): better IC50 values than RMP | inhibitory activity against Mycobacterium smegmatis growth (in words, compared with RMP) (listed as compound 42): superior inhibitory activity against Mycobacterium smegmatis than the prior art compound RMP | IC50: 15.2 µM

Oc1ccc(Br)cc1C=NNc1ccccn1 [Compound 70, 5-bromo-2-hydroxybenzaldehyde-2pyridinilhydrazone]
% of Celular Growth at 96 hours (concentration 1.23 μM): 95.9% | % of Celular Growth at 96 hours (concentration 3.70 μM): 96.6% | % of Celular Growth at 96 hours (concentration 11.11 μM): 80.0% | % of Celular Growth at 96 hours (concentration 33.33 μM): 44.2% | % of Celular Growth at 96 hours (concentration 100.00 μM): 38.9% | inhibitory activity against Mycobacterium smegmatis growth (in words, compared with RMP): better IC50 values than RMP | inhibitory activity against Mycobacterium smegmatis growth (in words, compared with RMP) (listed as N-pyridin-2-yl-N′-5-bromo-2-hydroxyphenylmethylene-hydrazine): desired pharmacological activity | IC50: 13.9 µM

C(=NNc1ccccn1)c1cccs1 [N-pyridin-2-yl-N′-thiophen-2-ylmethylene-hydrazine]
inhibitory activity against Mycobacterium smegmatis growth (in words, compared with RMP): desired pharmacological activity

CO[C@H]1/C=C/O[C@@]2(C)Oc3c(C)c(O)c4c(O)c(c(/C=N/N5CCN(C)CC5)c(O)c4c3C2=O)NC(=O)/C(C)=C\C=C\[C@H](C)[C@H](O)[C@@H](C)[C@@H](O)[C@@H](C)[C@H](OC(C)=O)[C@@H]1C [Rifampicin, reference compound]
% of Celular Growth at 96 hours (concentration 1.23 μM): 82.55% | % of Celular Growth at 96 hours (concentration 3.70 μM): 81.40% | % of Celular Growth at 96 hours (concentration 11.11 μM): 90.62% | % of Celular Growth at 96 hours (concentration 33.33 μM): 58.04% | % of Celular Growth at 96 hours (concentration 100.00 μM): 22.26% | IC50 (Mycolicibacterium smegmatis): 24.8 µM
